Where “and” joins values, the source holds several entries; their conditions need not be identical. Equal entries are not always repeated. Inconclusive results and toxic doses are left out.
Test system: P388 leukemia ip, CD2F1 mice, survival T/C
Experiment: NCI In Vivo Anticancer Drug Screen. Data for tumor model P388 Leukemia (intraperitoneal) in CD2F1 (CDF1) mice
Conditions: endpoint: median survival time, higher = longer survival
Method in brief: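 Mice carrying the transplanted tumor received test compound or vehicle. Survival was recorded in each group, and the value is the treated-group measurement divided by that of the vehicle-treated control group.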

[1] = dose: 100.0 mg/kg/injection, schedule: Q01DX009 (ip), vehicle: saline with Tween-80
[2] = dose: 200.0 mg/kg/injection, schedule: Q01DX009 (ip), vehicle: saline with Tween-80
[3] = dose: 400.0 mg/kg/injection, schedule: Q01DX009 (ip), vehicle: saline with Tween-80
[4] = dose: 50.0 mg/kg/injection, schedule: Q01DX005 (ip), vehicle: saline with Tween-80
[5] = dose: 60.0 mg/kg/injection, schedule: Q01DX005 (ip), vehicle: Klucel (hydroxypropylcellulose) (HPC)
[6] = dose: 120.0 mg/kg/injection, schedule: Q01DX005 (ip), vehicle: Klucel (hydroxypropylcellulose) (HPC)
[7] = dose: 25.0 mg/kg/injection, schedule: Q01DX009 (ip), vehicle: saline with Tween-80
[8] = dose: 50.0 mg/kg/injection, schedule: Q01DX009 (ip), vehicle: saline with Tween-80
[9] = dose: 60.0 mg/kg/injection, schedule: Q01DX005 (ip), vehicle: saline
[10] = dose: 120.0 mg/kg/injection, schedule: Q01DX005 (ip), vehicle: saline
[11] = dose: 240.0 mg/kg/injection, schedule: Q01DX005 (ip), vehicle: saline

Question: Which results are given for `CC(C)(C)OC(=O)c1ccc(C(=O)OC(C)(C)C)cc1`?
Answer: T/C (dose: 100.0 mg/kg/injection, schedule: Q04DX002 (ip), vehicle: saline with Tween-80): 97 % of control; T/C (dose: 200.0 mg/kg/injection, schedule: Q04DX002 (ip), vehicle: saline with Tween-80): 96 % of control; T/C (dose: 400.0 mg/kg/injection, schedule: Q04DX002 (ip), vehicle: saline with Tween-80): 96 % of control

Question: With `COc1ccc(C(=S)SCCCC(=O)O)cc1` as the molecule, how does the T/C (dose: 50.0 mg/kg/injection, schedule: Q01DX009 (ip), vehicle: Klucel (hydroxypropylcellulose) (HPC)) read?
Answer: 102 % of control

Question: And the T/C (dose: 100.0 mg/kg/injection, schedule: Q01DX009 (ip), vehicle: Klucel (hydroxypropylcellulose) (HPC))?
Answer: 98 % of control

Question: What about the T/C (dose: 200.0 mg/kg/injection, schedule: Q01DX009 (ip), vehicle: Klucel (hydroxypropylcellulose) (HPC)) of the same molecule?
Answer: 92 % of control

Question: For `O=C([O-])[O-].O=[N+]([O-])O.[Co+3].[NH2-].[NH2-].[NH2-].[NH2-]`, which T/C [1] is on record?
Answer: 122 % of control

Question: What about the T/C [2] of the same molecule?
Answer: 113 % of control

Question: What about the T/C [3] of the same molecule?
Answer: 100 % of control

Question: How did the T/C [4] turn out when `COc1ccc2c(c1)OC(C)(C)C(c1ccccc1)=C2c1ccc2c(c1)NC(=O)CO2` was run?
Answer: 99 % of control

Question: What about the T/C (dose: 100.0 mg/kg/injection, schedule: Q01DX005 (ip), vehicle: saline with Tween-80) of the same molecule?
Answer: 90 % of control

Question: And the T/C (dose: 200.0 mg/kg/injection, schedule: Q01DX005 (ip), vehicle: saline with Tween-80)?
Answer: 94 % of control

Question: With `O=S(=O)(O)O.[NH-]CC(N)=O.[NH-]CC(N)=O.[Ni+2]` as the molecule, how does the T/C (dose: 1.0 mg/kg/injection, schedule: Q01DX009 (ip), vehicle: saline) read?
Answer: 95 % of control

Question: And the T/C (dose: 2.0 mg/kg/injection, schedule: Q01DX009 (ip), vehicle: saline)?
Answer: 90 % of control

Question: And the T/C (dose: 4.0 mg/kg/injection, schedule: Q01DX009 (ip), vehicle: saline)?
Answer: 95 % of control

Question: What about the T/C (dose: 8.0 mg/kg/injection, schedule: Q01DX009 (ip), vehicle: saline) of the same molecule?
Answer: 90 % of control

Question: For `CC1CCCCN1CC(C)(C)C` (stereo not drawn), which T/C [5] is on record?
Answer: 100 % of control

Question: What about the T/C [6] of the same molecule?
Answer: 93 % of control

Question: For `O=C(O)CSC(=S)CCCCCCCCCCC(=S)SCC(=O)O`, which T/C (dose: 12.5 mg/kg/injection, schedule: Q01DX005 (ip), vehicle: saline with Tween-80) is on record?
Answer: 111 % of control

Question: What about the T/C (dose: 25.0 mg/kg/injection, schedule: Q01DX005 (ip), vehicle: saline with Tween-80) of the same molecule?
Answer: 109 % of control

Question: What about the T/C [4] of the same molecule?
Answer: 116 % of control and 118 % of control

Question: Which results are given for `CCCCN(CCCC)CC(O)c1c(Cl)c2ccccc2c2ccccc12` (stereo not drawn)?
Answer: T/C [7]: 100 % of control; T/C [8]: 93 % of control; T/C [1]: 100 % of control

Question: For `O=C(O)CNC(CO)(CO)CO`, which T/C [9] is on record?
Answer: 102 % of control

Question: What about the T/C [10] of the same molecule?
Answer: 100 % of control

Question: What about the T/C [11] of the same molecule?
Answer: 97 % of control

Question: `COc1cc(C=Nc2ccc3c(c2)OCO3)cc(OC)c1OC` was tested. Which T/C (dose: 60.0 mg/kg/injection, schedule: Q01DX005 (ip), vehicle: saline with Tween-80) did it give?
Answer: 103 % of control

Question: What about the T/C (dose: 120.0 mg/kg/injection, schedule: Q01DX005 (ip), vehicle: saline with Tween-80) of the same molecule?
Answer: 100 % of control

Question: And the T/C (dose: 240.0 mg/kg/injection, schedule: Q01DX005 (ip), vehicle: saline with Tween-80)?
Answer: 86 % of control

Question: `c1ccc(-c2nc(-c3ccccc3)c3ccccc3n2)cc1` was tested. Which T/C [7] did it give?
Answer: 104 % of control

Question: And the T/C [8]?
Answer: 114 % of control

Question: And the T/C [1]?
Answer: 114 % of control

Question: Which results are given for `S=C(NC1CCCCC1)N1CCC(CCCC2CCN(C(=S)NC3CCCCC3)CC2)CC1`?
Answer: T/C (dose: 25.0 mg/kg/injection, schedule: Q04DX003 (ip), vehicle: saline with Tween-80): 90 % of control; T/C [8]: 90 % of control; T/C (dose: 50.0 mg/kg/injection, schedule: Q04DX003 (ip), vehicle: saline with Tween-80): 90 % of control; T/C [1]: 90 % of control and 95 % of control; T/C (dose: 100.0 mg/kg/injection, schedule: Q04DX003 (ip), vehicle: saline with Tween-80): 90 % of control; T/C [2]: 90 % of control; T/C (dose: 200.0 mg/kg/injection, schedule: Q04DX003 (ip), vehicle: saline with Tween-80): 90 % of control; T/C [3]: 95 % of control; T/C (dose: 400.0 mg/kg/injection, schedule: Q04DX003 (ip), vehicle: saline with Tween-80): 90 % of control

Question: What does the source list for `O=C1/C(=C/N2CCN(c3ccccc3)CC2)Cc2c(Cl)cccc21`?
Answer: T/C (dose: 100.0 mg/kg/injection, schedule: Q04DX002 (ip), vehicle: Klucel (hydroxypropylcellulose) (HPC)): 105 % of control; T/C (dose: 200.0 mg/kg/injection, schedule: Q04DX002 (ip), vehicle: Klucel (hydroxypropylcellulose) (HPC)): 114 % of control; T/C (dose: 400.0 mg/kg/injection, schedule: Q04DX002 (ip), vehicle: Klucel (hydroxypropylcellulose) (HPC)): 102 % of control

Question: What does the source list for `C=C1CCC2C(C)(CCC(OCCCCC)C2(C)C(=O)OC)C1CCc1ccoc1` (stereo not drawn)?
Answer: T/C (dose: 8.25 mg/kg/injection, schedule: Q01DX005 (ip), vehicle: Klucel + Tween-80): 100 % of control; T/C (dose: 16.5 mg/kg/injection, schedule: Q01DX005 (ip), vehicle: Klucel + Tween-80): 102 % of control; T/C (dose: 33.0 mg/kg/injection, schedule: Q01DX005 (ip), vehicle: Klucel + Tween-80): 100 % of control; T/C (dose: 66.0 mg/kg/injection, schedule: Q01DX005 (ip), vehicle: Klucel + Tween-80): 94 % of control

Question: Which T/C (dose: 6.25 mg/kg/injection, schedule: Q01DX009 (ip), vehicle: saline sonified) does the source give for `COc1ccc(C2N(C)CCCN2C)c(OC)c1` here?
Answer: 100 % of control

Question: And the T/C (dose: 12.5 mg/kg/injection, schedule: Q01DX009 (ip), vehicle: saline sonified)?
Answer: 105 % of control

Question: And the T/C (dose: 25.0 mg/kg/injection, schedule: Q01DX009 (ip), vehicle: saline sonified)?
Answer: 100 % of control

Question: `c1ccc2c(NCCCCCCCCNc3c4ccccc4nc4ccccc34)c3ccccc3nc2c1` was tested. Which T/C (dose: 0.62 mg/kg/injection, schedule: Q## X009 (ip), vehicle: lactic acid) did it give?
Answer: 121 % of control

Question: And the T/C (dose: 0.63 mg/kg/injection, schedule: Q01DX009 (ip), vehicle: other)?
Answer: 104 % of control and 114 % of control

Question: And the T/C (dose: 1.25 mg/kg/injection, schedule: Q01DX009 (ip), vehicle: lactic acid)?
Answer: 161 % of control

Question: And the T/C (dose: 1.25 mg/kg/injection, schedule: Q01DX009 (ip), vehicle: saline)?
Answer: 124 % of control

Question: What about the T/C (dose: 2.5 mg/kg/injection, schedule: Q01DX009 (ip), vehicle: lactic acid) of the same molecule?
Answer: 159 % of control

Question: What about the T/C (dose: 2.5 mg/kg/injection, schedule: Q## X009 (ip), vehicle: lactic acid) of the same molecule?
Answer: 154 % of control

Question: And the T/C (dose: 10.0 mg/kg/injection, schedule: Q01DX009 (ip), vehicle: saline)?
Answer: 153 % of control

Question: And the T/C (dose: 40.0 mg/kg/injection, schedule: Q01DX009 (ip), vehicle: saline)?
Answer: 90 % of control

Question: And the T/C (dose: 80.0 mg/kg/injection, schedule: Q04DX003 (ip), vehicle: Klucel (hydroxypropylcellulose) (HPC))?
Answer: 88 % of control

Question: `NC1=NN(S(=O)(=O)c2ccc(Br)cc2)CC1` was tested. Which T/C (dose: 50.0 mg/kg/injection, schedule: Q01DX005 (ip), vehicle: Klucel (hydroxypropylcellulose) (HPC)) did it give?
Answer: 89 % of control

Question: What about the T/C (dose: 100.0 mg/kg/injection, schedule: Q01DX005 (ip), vehicle: Klucel (hydroxypropylcellulose) (HPC)) of the same molecule?
Answer: 94 % of control

Question: And the T/C (dose: 200.0 mg/kg/injection, schedule: Q01DX005 (ip), vehicle: Klucel (hydroxypropylcellulose) (HPC))?
Answer: 89 % of control

Question: How did the T/C (dose: 50.0 mg/kg/injection, schedule: Q01DX009 (ip), vehicle: saline) turn out when `Sc1ccccc1N=Cc1cccs1` was run?
Answer: 90 % of control

Question: What about the T/C (dose: 100.0 mg/kg/injection, schedule: Q01DX009 (ip), vehicle: saline) of the same molecule?
Answer: 99 % of control

Question: What about the T/C (dose: 200.0 mg/kg/injection, schedule: Q01DX009 (ip), vehicle: saline) of the same molecule?
Answer: 96 % of control

Question: Which results are given for `COc1ccc2c(C)cc(=O)oc2c1OCC(O)CN1CCOCC1` (stereo not drawn)?
Answer: T/C [9]: 110 % of control; T/C [10]: 104 % of control; T/C [11]: 103 % of control

Question: With `CCOc1c(N=Nc2cccc([N+](=O)[O-])c2)c(C)nn1C(=S)SC` as the molecule, how does the T/C [5] read?
Answer: 93 % of control

Question: And the T/C [6]?
Answer: 90 % of control

Question: For `NNS(=O)(=O)CCC(N)C(=O)O` (stereo not drawn), which T/C (dose: 12.5 mg/kg/injection, schedule: Q01DX009 (ip), vehicle: water) is on record?
Answer: 100 % of control

Question: What about the T/C (dose: 25.0 mg/kg/injection, schedule: Q01DX009 (ip), vehicle: water) of the same molecule?
Answer: 107 % of control

Question: And the T/C (dose: 50.0 mg/kg/injection, schedule: Q01DX009 (ip), vehicle: water)?
Answer: 107 % of control

Question: What about the T/C (dose: 100.0 mg/kg/injection, schedule: Q01DX009 (ip), vehicle: water) of the same molecule?
Answer: 98 % of control

Question: How did the T/C (dose: 25.0 mg/kg/injection, schedule: Q01DX009 (ip), vehicle: other) turn out when `COc1cc(Br)cc(C(=O)O)c1OC` was run?
Answer: 101 % of control

Question: And the T/C (dose: 50.0 mg/kg/injection, schedule: Q01DX009 (ip), vehicle: other)?
Answer: 106 % of control

Question: And the T/C [8]?
Answer: 93 % of control

Question: What about the T/C (dose: 100.0 mg/kg/injection, schedule: Q01DX009 (ip), vehicle: other) of the same molecule?
Answer: 102 % of control

Question: And the T/C [1]?
Answer: 93 % of control

Question: And the T/C [2]?
Answer: 100 % of control

Question: What about the T/C [3] of the same molecule?
Answer: 102 % of control
